From PubChem BioAssay (NCI)
Where “and” joins values, the source holds several entries; their conditions need not be identical. Equal values may be shown once.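 Step 1: Grow cells in 96-well plates. Step 2: Expose to compound for 48 hours at 5 concentrations. Step 3: Interpolate endpoints linearly; if unreached, use highest concentration. GI50: concentration for 50% inhibition of growth. Definition used: TGI = concentration required for complete inhibition of growth.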

Assays:
Assay in all cases: inhibition of tumour cell growth, NCI panel, 48 h
[1] = system: HCT-116 colon
[2] = system: HOP-62 NSCLC
[3] = system: KM12 colon
[4] = system: MALME-3M melanoma
[5] = system: MOLT-4 leukemia
[6] = system: SK-MEL-28 melanoma
[7] = system: SNB-75 CNS
[8] = system: SR leukemia
[9] = system: TK-10 renal
[10] = system: EKVX NSCLC

SMILES | GI50 [1] | TGI [1] | GI50 [2] | TGI [2] | GI50 [3] | TGI [3] | GI50 [4] | TGI [4] | GI50 [5] | TGI [5] | GI50 [6] | TGI [6] | GI50 [7] [µM] | TGI [7] [µM] | GI50 [8] | TGI [8] | GI50 [9] | TGI [9] | TGI [10] | GI50 [10] [µM]
CCOC(=O)c1ccccc1SC(C[N+](=O)[O-])c1ccccc1 (configuration not stated) | 1.46 µM | 2.98 µM | 16.9 µM | 32.1 µM | 3.21 µM | 10.4 µM | 14.8 µM | 29.5 µM | 4.54 µM | 30.6 µM | 1.91 µM | 3.74 µM | 12.7 | 41.6 | 2.99 µM | 8.97 µM | 5.91 µM | 18.8 µM | – | –
c1ccc2cc(C[n+]3ccn(Cc4ccc5ccccc5n4)c3)ccc2c1 | 0.413 µM and 3.29 µM | 6.86 µM and 15.8 µM | 1.4 µM and 5.05 µM | 7.02 µM and 20.3 µM | 0.384 µM and 2.25 µM | 1.74 µM and 7.56 µM | 0.235 µM and 1.36 µM | 0.811 µM and 6.35 µM | 0.488 µM and 3.19 µM | 5.04 µM and 14.7 µM | 0.325 µM and 2.78 µM | 1.35 µM and 13 µM | – | – | 0.364 µM and 2.82 µM | 2.16 µM and 13.7 µM | 1.71 µM and 10.4 µM | 6.47 µM and 23.8 µM | 7.34 µM and 31.4 µM | –
O=C1NC(=O)[C@@H](c2c[nH]c3ccccc23)[C@@H]1c1c[nH]c2ccccc12 | > 25 µM | > 25 µM | > 25 µM | > 25 µM | > 25 µM | > 25 µM | > 21.8 µM | > 25 µM | > 25 µM | > 25 µM | > 25 µM | > 25 µM | > 25 | > 25 | > 25 µM | > 25 µM | > 25 µM | > 25 µM | – | –
CN(C)c1ccc2cc3ccc(N(C)C)cc3nc2c1 | – | – | – | 7.18 µM | – | 1.85 µM | – | 10.1 µM | – | – | – | 16.3 µM | – | 11.9 | – | – | – | 9.21 µM | 7.21 µM | –
CN1C(=O)CCC1c1ccc2c(c1)oc(=O)n2C (configuration not stated) | – | > 100 µM | – | > 100 µM | – | > 100 µM | – | > 100 µM | – | > 100 µM | – | > 100 µM | – | > 100 | – | – | – | > 100 µM | > 100 µM | –
O=C(Oc1ccccc1Cl)c1ccccc1Nc1cccc(C(F)(F)F)c1 | 14.7 µM | 40.9 µM | 24.6 µM | 70.5 µM | 19.6 µM | 44.6 µM | – | – | 3.89 µM | 14.6 µM | 38.5 µM | > 100 µM | 43.1 | > 100 | – | – | 32.7 µM | 67.9 µM | 79.6 µM | 33.1
COc1ccc(-n2cc(-c3cc(OC)c(OC)c(OC)c3)[nH]c2=S)cc1Cl | 24.4 µM | > 100 µM | 22.1 µM | 52.8 µM | > 100 µM | > 100 µM | 40.1 µM | > 100 µM | > 100 µM | > 100 µM | 63 µM | > 100 µM | 18.6 | 48.7 | – | – | 17.2 µM | 66.7 µM | > 100 µM | 37.3
O=C1c2cccc3c(Cl)ccc(c23)C(=O)N1CCCN1CCN(CCCN2C(=O)c3cccc4c(Cl)ccc(c34)C2=O)CC1 | – | > 100 µM | – | > 100 µM | – | > 100 µM | – | > 100 µM | – | > 100 µM | – | – | – | > 100 | – | – | – | > 100 µM | > 100 µM | –
O=S1c2ccccc2NC(c2ccc3ccccc3c2)CC1c1ccccc1 (configuration not stated) | – | – | – | > 100 µM | – | 41.7 µM | – | > 100 µM | – | 70.3 µM | – | > 100 µM | – | 86.6 | – | – | – | > 100 µM | 63.9 µM | –
COC1C(CO)OC(n2c3c(Cl)cccc3c3c4c(c5c6cccc(Cl)c6[nH]c5c32)C(=O)NC4=O)C(O)C1O (configuration not stated) | – | 0.781 µM | – | 6.63 µM | – | > 58.6 µM | – | 1.12 µM | – | > 100 µM | – | > 73.5 µM | – | 5.87 | – | – | – | 19.7 µM | > 100 µM | –
COc1ccc(-c2nc(-c3ccccn3)c(-c3ccccn3)n2CC(C)C)cc1OC1CCCC1 | 7.35 µM | > 165 µM | 15.3 µM | > 165 µM | 11.1 µM | > 165 µM | – | – | 18 µM | 61.6 µM | 38.7 µM | 159 µM | 24 | 123 | 7.77 µM | 49.2 µM | – | – | – | –
Clc1ccc2nc(Cl)c3ccccc3c2c1 | 4.34 µM | 22.1 µM | 11.5 µM | 64.2 µM | 15.4 µM | > 100 µM | 10.7 µM | 71.1 µM | > 100 µM | > 100 µM | > 100 µM | > 100 µM | 2.09 | 8.16 | 22 µM | > 100 µM | 4.96 µM | 31.8 µM | – | –
O=C1CC(c2ccsc2)c2snc(-c3ccc(Cl)cc3)c2N1 (configuration not stated) | 0.515 µM | > 100 µM | 2.63 µM | 35.2 µM | 0.385 µM | > 100 µM | 2.72 µM | > 100 µM | – | – | 3.11 µM | > 100 µM | 1.71 | 9.71 | – | – | – | – | – | –
Cc1cc(NCc2cc(Nc3ccnc4cc(Cl)ccc34)ccc2F)nc(N2CCSCC2)n1 | 1.18 µM | 2.46 µM | 1.89 µM | 5.64 µM | – | – | – | – | 2.12 µM | 7.07 µM | – | – | 1.32 | 2.9 | – | – | 1.92 µM | 4.68 µM | 83.9 µM | 2.8
CC(C)CN1CC(C)C(=O)NC1=O (configuration not stated) | – | – | – | > 100 µM | – | > 100 µM | – | > 100 µM | – | > 100 µM | – | > 100 µM | – | – | – | > 100 µM | – | > 100 µM | > 100 µM | –
CCOc1cc2c(=O)oc3c(OC)ccc4ccc(c1OC)c2c43 | – | 20.4 µM | – | > 100 µM | – | > 100 µM | – | > 100 µM | – | > 100 µM | – | > 100 µM | – | > 100 | – | – | – | > 100 µM | > 100 µM | –
CCC(C)c1cccc(C)c1NC(=O)C(=O)Cc1nc2ccccc2s1 (configuration not stated) | – | > 100 µM | – | > 100 µM | – | > 100 µM | – | > 100 µM | – | > 100 µM | – | > 100 µM | – | > 100 | – | – | – | > 100 µM | > 100 µM | –
CN(C)C(=S)/N=c1\ss/c(=N\C(=S)N(C)C)n1Cc1ccco1 | – | > 100 µM | – | > 100 µM | – | > 100 µM | – | > 100 µM | – | > 100 µM | – | > 100 µM | – | > 100 | – | > 100 µM | – | > 100 µM | – | –
NC(CCc1ncc(-c2ccccc2)s1)C(=O)O (configuration not stated) | – | > 100 µM | – | – | – | > 100 µM | – | > 100 µM | – | > 100 µM | – | > 100 µM | – | > 100 | – | – | – | > 100 µM | > 100 µM | –
